Active and inactive are the calls of the source. No cut-off for these calls is given here.

These results are taken from ChEMBL document CHEMBL1148139, “Antiangiogenic activity of synthetic dihydrobenzofuran lignans” (J Nat Prod, 2002).

The nature of data set [1]: Toxicity to fertilized chicken eggs assessed as membrane irritating activity at 20 ug/pellet. More on the design: species or system Gallus gallus. Conditions: in vivo, other.
The species named for data set [2] is Gallus gallus. The data set can be described thus: Antiangiogenic activity in fertilized chicken eggs at 5 ug/pellet by CAM assay. The format is functional. The conditions noted are these: Egg.
The species entered for data set [3] is Gallus gallus. The experiment in a line: Antiangiogenic activity in fertilized chicken eggs at 20 ug/pellet by CAM assay. The class given is functional. Conditions: Egg.

On to `COC(=O)/C=C/c1cc(O)c2c(c1)[C@@H](C(=O)OC)[C@H](c1ccc(O)c(O)c1)O2`, for which the Activity in data set [1] was determined as 50%. The outcome in the data set listed under Gallus gallus [2] and in the data set filed under Gallus gallus [3] was Active.
